Our source for the Kb values is US5602099A, “δ opioid receptor antagonists” (Aktiebolaget Astra, priority 1993, dated 1997).

Like-named read-outs stand apart in the source and are kept apart here. Peptide text beside a SMILES is read from it.

The assay addresses T1, δ opioid receptors (Mus musculus, UniProt P32300).
T1 construct: Bioassays Using Isolated Organ Preparations; from tissue; host or cells: mouse vas deferens (isolated organ)
As to the kind of experiment: Mouse vas deferens (MVD) bioassay, antagonism of electrically evoked contraction inhibition by δ-selective agonists. In kind it is tissue-based. The settings on record: MVD assay, means of 3-8 determinations. An excerpt: a) Biosassys based on inhibition of electrically evoked contractions of the mouse vas deferens (MVD) and of the guinea pig ileum (GPI). In the GPI assay the opioid effect is primarily mediated by μ opioid receptors, whereas in the MVD assay the inhibition of the contractions is mostly due to interaction with δ opioid receptors.
The GPI and MVD bioassays were carded out as reported in P. W. Schiller et al., Biochem. Biophys. Res. Commun 85, 1332-1338 (1978) and J. Di Maio et al., J. Med. Chem. 25, 1432-1438 (1982). A log dose-response curve was determind with [Leu^5 ]enkephalin as standard for each ileum and vas preparation, and IC50 values of the compounds being tested were normalized according to A. A Waterfield et al., Eur. J. Pharmacol. 58, 11-18 (1979). […] These determinations were made with the MVD assay, using three different δ-selective agonists ([Leu^5 ] enkephalin, DPDPE and [D-Ala^2 ]deltorphin I].

Setting [1] is: Ke (nM) against [D-Ala2]deltorphin I, δ agonist [D-Ala2]deltorphin I.
Setting [2] is: Ke (nM) against [Leu5]Enkephalin, δ agonist [Leu5]enkephalin.
Setting [3] is: δ agonist DPDPE, read-out: Ke (nM) against DPDPE.
Where [4] appears, read: δ agonist [D-Ala2]deltorphin I, read-out: Ke (nM) against [D-Ala2]deltorphin I.
The mark [5] stands for this setting: δ agonist [Leu5]enkephalin, read-out: Ke (nM) against [Leu5]Enkephalin.
Setting [6] is: Ke (nM) against DPDPE, δ agonist DPDPE.

T1 sequence (P32300 whole entry): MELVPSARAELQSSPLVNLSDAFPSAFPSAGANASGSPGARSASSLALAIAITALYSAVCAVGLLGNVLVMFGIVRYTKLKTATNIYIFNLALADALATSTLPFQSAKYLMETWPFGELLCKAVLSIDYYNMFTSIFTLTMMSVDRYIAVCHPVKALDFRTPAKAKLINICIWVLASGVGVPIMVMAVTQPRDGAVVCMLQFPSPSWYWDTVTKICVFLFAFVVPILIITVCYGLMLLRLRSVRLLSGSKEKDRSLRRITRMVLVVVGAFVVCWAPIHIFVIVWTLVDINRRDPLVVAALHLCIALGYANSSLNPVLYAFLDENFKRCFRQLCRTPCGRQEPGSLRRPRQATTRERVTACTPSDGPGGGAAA

With `Cc1cc(O)cc(C)c1C[C@H](N)C(=O)N1Cc2ccccc2C[C@H]1C(=O)N[C@@H](Cc1ccccc1)C(=O)N[C@@H](Cc1ccccc1)C(N)=O` [HDmtTicPhePheNH2, H-Dmt-Tic-Phe-Phe-NH2] (HELM PEPTIDE1{[Cc1cc(O)cc(C)c1C[C@H](N)C(=O)[*:2]].[Tic].F.F.[am]}$$$$V2.0), the Kb stood at 0.26 nM under setting [1], 0.221 nM under setting [2] and 0.209 nM under setting [3].
On to `Cc1cc(O)cc(C)c1C[C@H](N)C(=O)N1Cc2ccccc2C[C@H]1C(=O)N[C@@H](Cc1ccccc1)C(=O)N[C@@H](Cc1ccccc1)C(=O)O` [HDmtTicPhePheOH, H-Dmt-Tic-Phe-Phe-OH] (HELM PEPTIDE1{[Cc1cc(O)cc(C)c1C[C@H](N)C(=O)[*:2]].[Tic].F.F}$$$$V2.0), for which the Kb is, setting by setting: under setting [3], 0.196 nM; under setting [4], 0.13 nM; under setting [5], 0.169 nM.
With `N[C@@H](Cc1ccc(O)c(Br)c1)C(=O)N1Cc2ccccc2C[C@H]1C(=O)N[C@@H](Cc1ccccc1)C(=O)N[C@@H](Cc1ccccc1)C(=O)O` [HTyr(3-Br)TicPhePheOH, H-Tyr(3-Br)-Tic-Phe-Phe-OH] (HELM PEPTIDE1{[N[C@@H](Cc1ccc(O)c(Br)c1)C(=O)[*:2]].[Tic].F.F}$$$$V2.0), the Kb was 31.3 nM under setting [6], 23.9 nM under setting [1] and 18.2 nM under setting [2].
On the same counts, the results for `N[C@@H](Cc1ccc(O)c(Cl)c1)C(=O)N1Cc2ccccc2C[C@H]1C(=O)N[C@@H](Cc1ccccc1)C(=O)N[C@@H](Cc1ccccc1)C(=O)O` [HTyr(3-Cl)TicPhePheOH, H-Tyr(3-Cl)-Tic-Phe-Phe-OH] (HELM PEPTIDE1{[N[C@@H](Cc1ccc(O)c(Cl)c1)C(=O)[*:2]].[Tic].F.F}$$$$V2.0) are 20.4 nM, 19.9 nM and 18 nM.
Consider `N[C@@H](Cc1ccc(O)c(F)c1)C(=O)N1Cc2ccccc2C[C@H]1C(=O)N[C@@H](Cc1ccccc1)C(=O)N[C@@H](Cc1ccccc1)C(=O)O` [HTyr(3-F)TicPhePheOH, H-Tyr(3-F)-Tic-Phe-Phe-OH] (HELM PEPTIDE1{[N[C@@H](Cc1ccc(O)c(F)c1)C(=O)[*:2]].[Tic].F.F}$$$$V2.0), for which the Kb runs as follows: under setting [6], 13 nM; under setting [1], 8.73 nM; under setting [2], 5.88 nM.
On the same counts, the results for `N[C@@H](Cc1ccc(O)cc1)C(=O)N1Cc2ccccc2C[C@H]1CN[C@@H](CCc1ccccc1)C(=O)N[C@@H](Cc1ccccc1)C(=O)O` [HTyrTic.psi.[CH2NH]HfePheOH, H-Tyr-Tic-.PSI.[CH2 --NH]Hfe-Phe-OH] are 2.64 nM, 1.9 nM and 2.22 nM.
As for `N[C@@H](Cc1ccc(O)cc1)C(=O)N1Cc2ccccc2C[C@H]1C(=O)NC1(C(=O)N[C@@H](Cc2ccccc2)C(=O)O)CCc2ccccc2C1` (stereo partly drawn) [HTyrTicAtcPheOH, H-Tyr-Tic-Atc-Phe-OH] (HELM PEPTIDE1{Y.[Tic].[O=C(C1(N[*:1])CCc2ccccc2C1)[*:2]].F}$$$$V2.0), the Kb by setting is: under setting [6], 1.85 nM; under setting [1], 0.927 nM; under setting [2], 1.63 nM.
Regarding `N[C@@H](Cc1ccc(O)cc1)C(=O)N1Cc2ccccc2C[C@H]1C(=O)N[C@@H](Cc1ccccc1)C(=O)N[C@@H](Cc1ccc([N+](=O)[O-])cc1)C(=O)O` [HTyrTicPhePhe(pNO2)OH, H-Tyr-Tic-Phe-Phe(pNO2)-OH] (HELM PEPTIDE1{Y.[Tic].F.[O=C(O)[C@H](Cc1ccc([N+](=O)[O-])cc1)N[*:1]]}$$$$V2.0), the Kb turned out to be 3.3 nM under setting [6], 2.79 nM under setting [1] and 3.62 nM under setting [2].
On the same counts, the results for `CCCC[C@H](NC(=O)[C@H](CC(C)C)NC(=O)[C@H](Cc1ccccc1)NC(=O)[C@H](Cc1ccccc1)NC(=O)[C@@H]1Cc2ccccc2CN1C(=O)[C@@H](N)Cc1ccc(O)cc1)C(=O)N[C@@H](CC(=O)O)C(N)=O` [HTyrTicPhePheLeuNleAspNH2, H-Tyr-Tic-Phe-Phe-Leu-Nle-Asp-NH2] (HELM PEPTIDE1{Y.[Tic].F.F.L.[Nle].D.[am]}$$$$V2.0) are 10.4 nM, 10.8 nM and 21.4 nM.
As for `N[C@@H](Cc1ccc(O)cc1)C(=O)N1Cc2ccccc2C[C@H]1C(=O)N[C@@H](Cc1ccccc1)C(=O)N[C@@H](Cc1ccccc1)C(=O)O` [HTyrTicPhePheOH, H-Tyr-Tic-Phe-Phe-OH] (HELM PEPTIDE1{Y.[Tic].F.F}$$$$V2.0), the Kb by setting is: under setting [3], 4.8 nM; under setting [4], 2.96 nM; under setting [5], 5.86 nM.
Consider `N[C@@H](Cc1ccc(O)cc1)C(=O)N1Cc2ccccc2C[C@H]1C(=O)N[C@@H](Cc1c[nH]c2ccccc12)C(=O)O` [HTyrTicTrpOH] (HELM PEPTIDE1{Y.[Tic].W}$$$$V2.0), for which the Kb is, setting by setting: under setting [6], 6.23 nM; under setting [1], 5.36 nM; under setting [2], 10.6 nM.
On the same counts, the results for `N[C@@H](Cc1ccc(O)cc1)C(=O)N1Cc2ccccc2C[C@H]1C(=O)N[C@@H](Cc1c[nH]c2ccccc12)C(=O)N[C@@H](Cc1ccc([N+](=O)[O-])cc1)C(=O)O` [HTyrTicTrpPhe(pNO2)OH, H-Tyr-Tic-Trp-Phe(pNO2)-OH] (HELM PEPTIDE1{Y.[Tic].W.[O=C(O)[C@H](Cc1ccc([N+](=O)[O-])cc1)N[*:1]]}$$$$V2.0) are 4.4 nM, 2.27 nM and 1.83 nM.
With `NC(=O)[C@H](CO)NC(=O)[C@@H]1CCCN1C(=O)[C@H](Cc1ccc(O)cc1)NC(=O)[C@H](Cc1ccc([N+](=O)[O-])cc1)NC(=O)[C@H](Cc1c[nH]c2ccccc12)NC(=O)[C@@H]1Cc2ccccc2CN1C(=O)[C@@H](N)Cc1ccc(O)cc1` [HTyrTicTrpPhe(pNO2)TyrProSerNH2, H-Tyr-Tic-Trp-Phe (pNO2) -Tyr-Pro-Ser-NH2] (HELM PEPTIDE1{Y.[Tic].W.[O=C([C@H](Cc1ccc([N+](=O)[O-])cc1)N[*:1])[*:2]].Y.P.S.[am]}$$$$V2.0), the Kb under setting [6] was found to be 2.48 nM, the Kb under setting [1] amounted to 3.91 nM and the Kb under setting [2] worked out at 3.68 nM.
For the molecule `NC(=O)[C@H](CO)NC(=O)[C@@H]1CCCN1C(=O)[C@H](Cc1ccc(O)cc1)NC(=O)[C@H](Cc1ccccc1)NC(=O)[C@H](Cc1c[nH]c2ccccc12)NC(=O)[C@@H]1Cc2ccccc2CN1C(=O)[C@@H](N)Cc1ccc(O)cc1` [HTyrTicTrpPheTyrProSerNH2, H-Tyr-Tic-Trp-Phe-Tyr-Pro-Ser-NH2] (HELM PEPTIDE1{Y.[Tic].W.F.Y.P.S.[am]}$$$$V2.0), the Kb by setting is: under setting [6], 3.65 nM; under setting [2], 4.2 nM.
Turning to `CN[C@@H](Cc1ccc(O)cc1)C(=O)N1Cc2ccccc2C[C@H]1CN[C@@H](CCc1ccccc1)C(=O)N[C@@H](Cc1ccccc1)C(=O)O` [Tyr(NMe)-Tic.psi.[CH2NH]HfePheOH, Tyr(NMe)-Tic.PSI.[CH2 --NH]Hfe-Phe-OH], the Kb under setting [6] was determined as 0.902 nM, the Kb under setting [1] turned out to be 0.418 nM and the Kb under setting [2] amounted to 0.78 nM.
Turning to `O=C(O)[C@H](Cc1ccccc1)NC(=O)[C@H](Cc1ccccc1)NC(=O)[C@@H]1Cc2ccccc2CN1C(=O)[C@H](Cc1ccc(O)cc1)NCC1CC1` [Tyr(N^α Cpm)-TicPhePheOH, Tyr(N^α Cpm)-Tic-Phe-Phe-OH], the Kb by setting is: under setting [6], 28.2 nM; under setting [1], 32.5 nM; under setting [2], 29.6 nM.
On the same counts, the results for `CCN(CC)[C@@H](Cc1ccc(O)cc1)C(=O)N1Cc2ccccc2C[C@H]1C(=O)N[C@@H](Cc1ccccc1)C(=O)N[C@@H](Cc1ccccc1)C(=O)O` [Tyr(N^α Et2)-TicPhePheOH, Tyr(N^α Et2)-Tic-Phe-Phe-OH] are 0.893 nM, 2.3 nM and 3.39 nM.
